Molecules are shown by their SMILES.

This data set has as its system decubitus ulcers. Briefly: Evaluation of n-butyl cyanoacrylate adhesive on inhibition of decubitus ulcers in 17 adult nursing home patients. Type of data set: in vivo, human. As for the experimental part:
An evaluation of the effect of n-butyl cyanoacrylate adhesive on the inhibition of decubitus ulcers in 17 adult patients located in nine different nursing homes was conducted. In this example, 17 patients were selected based on a history of recurring decubitus ulcer formation or, based on medical evaluation, were deemed to be at high risk of developing decubitus ulcers. A prophylactic treatment regimen was then employed on these patients which regimen consisted of using conventional pressure ulcer preventative practices primarily involving periodic rotation of the patient as well as application of an n-butyl cyanoacrylate adhesive composition onto the intact skin areas which appeared likely to develop pressure ulcers by virtue of irritation and reddening of the skin or unbroken blister formation which is classified as a stage I decubitus ulcer or by application of the n-butyl cyanoacrylate composition onto intact skin adjacent to type II decubitus ulcers. Application of n-butyl cyanoacrylate consisted of application of about 1-5 drops of the n-butyl cyanoacrylate composition onto the surface skin area prone to ulceration wherein each drop corresponds to about 0.03 ml of cyanoacrylate.
The specific amount of n-butyl cyanoacrylate adhesive and point of application of the adhesive for each patient are set forth in the following Table I:
After application, the cyanoacrylate adhesive was allowed to form a polymeric film and, on average, reapplication of the adhesive was conducted every 24 hours until the evaluation was completed.

In the case of `C=C(C#N)C(=O)OCCCC` [n-butyl cyanoacrylate adhesive, n-butyl-2-cyanoacrylate], the “expansion of stage II decubitus ulcer to adjacent skin areas” value (all patients treated in skin areas adjacent to stage II decubitus ulcer, plus conventional preventative practices) is “minimal expansion of the ulcer”. Further, the “progression to stage II decubitus ulcer formation (broken skin)” value (all patients with redness/irritation or blistering (stage I) of intact skin, plus conventional pressure ulcer preventative practices) is “did not progress to stage II decubitus ulcer formation”. Also, the RESULT result is given as “NO BREAKDOWN OF SKIN ON HEEL” (patient 1, heel, redness 3 cm, 2 drops, reapplied about every 24 h, plus conventional preventative practices); “LESS PERSPIRATION AND NO IRRITATION” (patient 2, heel, redness 3 cm, 2 drops, reapplied about every 24 h, plus conventional practices); “NO BREAKDOWN OF BLISTER TO STAGE II” (patient 3, heels (2), blister (Stage I) 3-4 cm, 2 drops, reapplied about every 24 h, plus conventional practices); “NO SKIN BREAKDOWN ON HEELS OR ELBOWS” (patient 4, heels (2) and elbows (2), redness 3-5 cm, 2 drops, reapplied about every 24 h, plus conventional practices); “NO IRRITATION DEVELOPED” (patient 5, cheek, redness ½-3 in, 2 drops, reapplied about every 24 h, plus conventional practices); “NO SKIN BREAKDOWN” (patient 6, lower leg, bruise 2-3 in, 4-5 drops, reapplied about every 24 h, plus conventional practices, listed as N-BUTYL CYANOACRYLATE ADHESIVES). Moreover, the RESULT entry was “SKIN DID NOT BREAKDOWN” (patient 7, shoulder, bony prominence 3-4 cm, 3-4 drops, reapplied about every 24 h, plus conventional practices, listed as N-BUTYL CYANOACRYLATE ADHESIVES); “NO SKIN BREAKDOWN” (patient 8, hip, bony prominence 3-4 cm, 3-4 drops, reapplied about every 24 h, plus conventional practices); “NO IRRITATION/REDDENING LEFT” (patient 9, heels (2), redness 5 cm, 1 drop, reapplied about every 24 h, plus conventional practices); “WARMING SENSATION UPON APPLICATION -” (patient 10, hip, blister (Stage I) 3-4 cm, 2 drops, treatment stopped); “NO IRRITATION/REDDENlNG LEFT” (patient 11, top of foot, redness 2-5 cm, 1 drop, reapplied about every 24 h, plus conventional practices); “REDNESS HEALED UP” (patient 12, heel, redness (scabbed over - healed stage II) 6-8 cm, 3 drops, reapplied about every 24 h, plus conventional practices). Also, the RESULT result runs as follows: (patient 13, knees & heels, redness 2.5 cm, 3 drops, patient passed away due to other conditions) “IRRITATION IMPROVED BUT PATIENT”; (patient 14, heel, skin redness around Stage II ulcer 2.5 cm, 3 drops, reapplied about every 24 h, plus conventional practices) “NO IRRITATION EVIDENT - HEELS ALMOST HEALED”; (patient 15, heels (2), redness 2.5 cm, 3 drops, reapplied about every 24 h, plus conventional practices) “PATIENT'S HEELS LOOK BETTER,”; (patient 16, hip, redness (healed Stage II ulcer) 2 cm, 2-3 drops, reapplied about every 24 h, plus conventional practices) “NO FURTHER BREAKDOWN, REDDENING STILL”.

These data come from patent US6492434B1, “Methods for inhibiting skin ulceration by use of cyanoacrylate adhesives” (Flowers PArk Ltd., priority 1995, dated 2002).
